Results: patent publication US20210212996A1, “METHODS OF TREATING NEURODEGENERATIVE DISEASES USING INDANE ACETIC ACID DERIVATIVES WHICH PENETRATE THE BLOOD BRAIN BARRIER” (DARA BioSciences, Inc., priority 2009, published 2021)
Where two headings read alike, the source gives them in different places.

Tests used:
[1] = Rat brain penetrance pharmacokinetics, brain to plasma ratio after oral dosing; assay type: in vivo, male Sprague-Dawley rats; conditions: for concentration at 7 h: time point 7.0, individual rats
Description: Blood brain penetration studies can be carried out as described in recent publications and as is known by those skilled in the art. (See: Chang, K. L., et al. Influence of drug transporters and stereoselectivity on the brain penetration of pioglitazone as a potential medicine against Alzheimer's disease. Science Reports 2014, 5, 9000). In brief, A good measure of whether a small molecule penetrates the BBB and is not rapidly transported out, is the brain to plasma ratio of the drug. This is measured in pre-clinical animal models by determining plasma concentration vs time curves as in a standard pharmacokinetic study, and in addition harvesting brains and determining whole brain concentrations over time. The brain to plasma concentration ratio can them be determined at any time point, such as the […], or for the entire time curve (AUC, area under the curve). Clinically, FDG-PET can be used as a measure of the pharmacological effect of T3D-959, and an indirect measure of brain levels of drug.
For compounds of the present invention to be effective in treating neurotoxicity or neurodegeneration, it must have an ability to cross the BBB and penetrate the brain. […] The plasma exposure as measured by AUClast was 9569±1190 hr*ng/mL.

[2] = tested on: Relative Cerebral Metabolic Rate for glucose; assay: FDG-PET clinical study, two week treatment; assay type: in vivo, human
Description: The majority were non-Hispanic and of white origin.

human PPARγ = target: T1, human PPARγ (Homo sapiens, UniProt P37231); assay: Human PPAR activation in transient transfection study, transfected CV-1 cells (gamma subtype); assay type: cell-based
T1 construct: expressed in transfected cells; host or cells: CV-1 cells (transient transfection)
T1 sequence (P37231 1-505): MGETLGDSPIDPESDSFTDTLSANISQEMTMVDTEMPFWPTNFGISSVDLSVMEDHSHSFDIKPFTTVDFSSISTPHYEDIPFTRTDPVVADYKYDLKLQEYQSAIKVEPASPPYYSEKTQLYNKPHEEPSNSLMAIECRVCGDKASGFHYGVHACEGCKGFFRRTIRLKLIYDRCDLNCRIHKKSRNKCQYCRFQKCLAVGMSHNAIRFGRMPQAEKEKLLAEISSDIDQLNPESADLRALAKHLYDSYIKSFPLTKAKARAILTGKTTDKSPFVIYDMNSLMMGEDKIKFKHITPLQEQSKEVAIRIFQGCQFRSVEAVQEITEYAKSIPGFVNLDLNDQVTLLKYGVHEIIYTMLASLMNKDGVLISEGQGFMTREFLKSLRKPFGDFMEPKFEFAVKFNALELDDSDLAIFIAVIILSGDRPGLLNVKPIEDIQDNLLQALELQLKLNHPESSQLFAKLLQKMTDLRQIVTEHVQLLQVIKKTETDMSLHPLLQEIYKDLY
Description: (§1) The table summarize the results of studies performed in transfected CV-1 cells with three different lots of Compound of Example 11. […].

human PPARδ = target: T2, human PPARδ (Homo sapiens, UniProt Q03181); assay: Human PPAR activation in transient transfection study, transfected CV-1 cells (delta subtype); assay type: cell-based
T2 construct: expressed in transfected cells; host or cells: CV-1 cells (transient transfection)
T2 sequence (Q03181 1-441): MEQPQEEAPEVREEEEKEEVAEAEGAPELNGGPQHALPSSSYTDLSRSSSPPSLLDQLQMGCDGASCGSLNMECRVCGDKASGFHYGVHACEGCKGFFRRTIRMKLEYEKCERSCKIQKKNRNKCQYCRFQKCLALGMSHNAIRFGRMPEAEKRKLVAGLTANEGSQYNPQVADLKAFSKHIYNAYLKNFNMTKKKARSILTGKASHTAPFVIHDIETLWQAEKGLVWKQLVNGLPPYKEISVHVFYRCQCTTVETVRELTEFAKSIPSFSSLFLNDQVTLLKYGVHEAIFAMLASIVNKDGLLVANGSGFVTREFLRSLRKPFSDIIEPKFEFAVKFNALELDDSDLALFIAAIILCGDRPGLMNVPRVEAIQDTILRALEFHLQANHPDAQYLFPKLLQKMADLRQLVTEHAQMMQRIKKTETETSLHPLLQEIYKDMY

human PPARα = target: T3, human PPARα (Homo sapiens, UniProt Q07869); assay: Human PPAR activation in transient transfection study, transfected CV-1 cells (alpha subtype); assay type: cell-based
T3 construct: expressed in transfected cells; host or cells: CV-1 cells (transient transfection)
T3 sequence (Q07869 1-468): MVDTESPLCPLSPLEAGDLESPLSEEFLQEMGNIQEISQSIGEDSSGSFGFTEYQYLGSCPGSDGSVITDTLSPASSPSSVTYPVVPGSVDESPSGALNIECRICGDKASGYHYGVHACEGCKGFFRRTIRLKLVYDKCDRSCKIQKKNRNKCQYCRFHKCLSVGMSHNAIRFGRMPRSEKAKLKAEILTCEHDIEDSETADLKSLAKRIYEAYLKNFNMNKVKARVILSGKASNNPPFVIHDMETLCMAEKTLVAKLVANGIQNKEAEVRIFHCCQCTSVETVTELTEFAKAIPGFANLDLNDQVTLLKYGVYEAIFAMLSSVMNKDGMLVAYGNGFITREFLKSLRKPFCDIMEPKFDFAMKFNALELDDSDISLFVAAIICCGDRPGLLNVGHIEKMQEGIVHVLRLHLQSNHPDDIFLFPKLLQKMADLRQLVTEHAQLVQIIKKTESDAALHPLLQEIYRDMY
Description: as §1

[3] = Caco-2 permeability with and without P-gp inhibitor verapamil; conditions: human, Caco-2
human Caco-2 = assay: as above; conditions: Caco-2 with/without verapamil

For `CCc1oc(-c2ccc(OC)cc2)nc1CCOc1ccc2c(c1)CC[C@H]2CC(=O)[O-].[Na+]` [Example 11, Sodium (S)-2-(5-(2-(5-ethyl-2-(4-methoxyphenyl)oxazol-4-yl)ethoxy)-2,3-dihydro-1H-inden-1-yl)acetate], which “time plasma Cmax reached post dose” value ([1]; 3 mg/kg oral) is on record?
The value was 5 h.

What about the concentration at 7 h ([1]; male, Sprague-Dawley, rat, brain, oral, 3 mg/kg, read-out: Brain Tissue Cone.) of the same compound?
The concentration at 7 h was 130 ng/g.

And the Kp at 3 h ([1]; male, Sprague-Dawley, rat, in vivo, 3 mg/kg, time point 3.0, individual rats, read-out: B/P Ratio)?
Its Kp at 3 h is 0.19.

What about the concentration at 3 h ([1]; male, Sprague-Dawley, rat, in vivo, 3 mg/kg, time point 3.0, individual rats, read-out: Brain Tissue Cone.) of the same compound?
The concentration at 3 h was 274 ng/g.

And the concentration at 3 h ([1]; male, Sprague-Dawley, rat, in vivo, 3 mg/kg, time point 3.0, individual rats, read-out: Plasma Conc.)?
Its concentration at 3 h is 1430 ng/mL.

And the Kp at 5 h ([1]; male, Sprague-Dawley, rat, in vivo, 3 mg/kg, time point 5.0, individual rats, read-out: B/P Ratio)?
The Kp at 5 h was 0.17.

What about the concentration at 5 h ([1]; male, Sprague-Dawley, rat, in vivo, 3 mg/kg, time point 5.0, individual rats, read-out: Brain Tissue Cone.) of the same compound?
The concentration at 5 h was 208 ng/g.

What about the concentration at 5 h ([1]; male, Sprague-Dawley, rat, in vivo, 3 mg/kg, time point 5.0, individual rats, read-out: Plasma Conc.) of the same compound?
The concentration at 5 h was 1260 ng/mL.

What about the concentration at 7 h ([1]; male, Sprague-Dawley, rat, in vivo, 3 mg/kg, read-out: Brain Tissue Cone.) of the same compound?
Its concentration at 7 h is 203 ng/g.

And the Kp at 12 h ([1]; male, Sprague-Dawley, rat, in vivo, 3 mg/kg, time point 12.0, individual rats, read-out: B/P Ratio)?
The Kp at 12 h was 0.3.

And the concentration at 12 h ([1]; male, Sprague-Dawley, rat, in vivo, 3 mg/kg, time point 12.0, individual rats, read-out: Brain Tissue Cone.)?
The concentration at 12 h was 104 ng/g.

And the concentration at 12 h ([1]; male, Sprague-Dawley, rat, in vivo, 3 mg/kg, time point 12.0, individual rats, read-out: Plasma Conc.)?
Its concentration at 12 h is 345 ng/mL.

And the Kp at 1 h ([1]; male, Sprague-Dawley, rat, in vivo, po, 3 mg/kg, 1 hour, 3 mg/kg oral)?
The Kp at 1 h was 0.361 ± 0.142.

And the Kp at 3 h ([1]; male, Sprague-Dawley, rat, in vivo, po, 3 mg/kg, 3 hours, 3 mg/kg oral, read-out: Brain/Plasma ratio)?
The Kp at 3 h was 0.22 ± 0.033.

What about the Kp at 5 h ([1]; male, Sprague-Dawley, rat, in vivo, po, 3 mg/kg, 5 hours, 3 mg/kg oral, read-out: Brain/Plasma ratio) of the same compound?
Its Kp at 5 h is 0.171 ± 0.011.

What about the Kp at 7 h ([1]; male, Sprague-Dawley, rat, in vivo, po, 3 mg/kg, 7 hours, 3 mg/kg oral) of the same compound?
Its Kp at 7 h is 0.328 ± 0.154.

And the Kp at 12 h ([1]; male, Sprague-Dawley, rat, in vivo, po, 3 mg/kg, 12 hours, 3 mg/kg oral, read-out: Brain/Plasma ratio)?
The Kp at 12 h was 0.35 ± 0.077.

What about the half-life ([1]; male, Sprague-Dawley, rat, in vivo, 3 mg/kg oral) of the same compound?
Its half-life is 200 min.

What about the Cmax ([1]; male, Sprague-Dawley, rat, in vivo, 3 mg/kg oral, normal saline) of the same compound?
The Cmax was 1550 ± 248 ng/mL.

What about the AUC(0-t) ([1]; male, Sprague-Dawley, rat, in vivo, 3 mg/kg oral, read-out: plasma exposure AUClast) of the same compound?
The AUC(0-t) was 9570 ± 1190 ng·h/mL.

What about the concentration at 3 h ([1]; male, Sprague-Dawley, rat, plasma, oral, 3 mg/kg, time point 3.0, individual rats, read-out: Plasma Conc.) of the same compound?
The concentration at 3 h was 910 ng/mL.

And the “number of voxels with statistically significant differences from baseline to end of treatment (ROSDs)” value ([2]; 10 mg)?
The value was 70 voxels.

And the “penetration of the Blood Brain Barrier (FDG-PET, voxel-wise analysis)” value ([2]; clinical, 3 to 90 mg)?
The value was “penetrates the Blood Brain Barrier (BBB) even at the lowest 3 mg”.

What about the “dose dependence of the effect on FDG-PET outcomes” value ([2]; sROI, anatomical ROI and voxel-wise SPM analyses) of the same compound?
The value was “dose-dependent, with larger effects observed at larger doses”.

And the EC50 (human PPARγ; Lot A, Non GMP, read-out: EC50 PPARγ)?
Its EC50 is 220 nM.

And the EC50 (human PPARγ; Lot B, GLP Nonclinical Studies, read-out: EC50 PPARγ)?
Its EC50 is 270 nM.

And the EC50 (human PPARγ; Lot C, cGMP material, read-out: EC50 PPARγ)?
The EC50 was 400 nM.

And the EC50 (human PPARγ; average of three lots, read-out: Average EC50 PPARγ)?
The EC50 was 297 nM.

What about the EC50 (human PPARδ; Lot A, Non GMP, read-out: EC50 PPARδ) of the same compound?
The EC50 was 15 nM.

And the EC50 (human PPARδ; Lot B, GLP Nonclinical Studies, read-out: EC50 PPARδ)?
The EC50 was 27 nM.

And the EC50 (human PPARδ; Lot C, cGMP material, read-out: EC50 PPARδ)?
Its EC50 is 16 nM.

What about the EC50 (human PPARδ; average of three lots, read-out: Average EC50 PPARδ) of the same compound?
Its EC50 is 19 nM.

And the EC50 (human PPARα; Lot A, Non GMP, read-out: EC50 PPARα)?
Its EC50 is 488 nM.

And the EC50 (human PPARα; Lot B, GLP Nonclinical Studies, read-out: EC50 PPARα)?
The EC50 was 750 nM.

What about the EC50 (human PPARα; Lot C, cGMP material, read-out: EC50 PPARα) of the same compound?
Its EC50 is 360 nM.

And the “selectivity over the human PPAR alpha subtype” value (human PPARα; PPARδ vs PPARα)?
Its value is roughly 30 fold.

And the EC50 (human PPARα; average of three lots, read-out: Average EC50 PPARα)?
The EC50 was 530 nM.

What about the Papp [3] of the same compound?
Its Papp is 114 ×10⁻⁶ cm/s.

And the P-gp substrate (human Caco-2)?
The P-gp substrate was “not a substrate for P-gp”.
